One series deals with T1, rat BCAT cytosolic form (Rattus norvegicus, UniProt P54690).
T1 construct: made in house; host or cells: E. coli BL21(DE3)
T1 sequence (P54690 1-411): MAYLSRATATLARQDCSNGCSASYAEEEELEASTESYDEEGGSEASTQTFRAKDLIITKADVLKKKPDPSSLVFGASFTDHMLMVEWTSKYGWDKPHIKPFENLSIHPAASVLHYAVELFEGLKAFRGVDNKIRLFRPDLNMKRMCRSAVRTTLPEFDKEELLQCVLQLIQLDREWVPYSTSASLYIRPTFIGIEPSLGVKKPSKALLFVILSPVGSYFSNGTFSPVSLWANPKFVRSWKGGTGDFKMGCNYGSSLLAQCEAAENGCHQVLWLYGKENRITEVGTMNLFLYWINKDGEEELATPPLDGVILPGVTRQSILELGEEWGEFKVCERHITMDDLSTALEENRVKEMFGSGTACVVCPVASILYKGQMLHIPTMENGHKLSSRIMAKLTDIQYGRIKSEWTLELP
As to the kind of experiment: In vitro coupled enzyme assay (glutamate dehydrogenase, NADH formation), rat BCATc. In kind it is biochemical. Conditions: recombinant rat BCATc, 37° C., 25 mM phosphate buffer pH 7.8; several values in a cell = repeat determinations; read-out: RrBCATc. In a few lines: (§1)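 At 37 °C in 25 mM phosphate pH 7.8 with 2 mM DTT, 1.25 μg His-tag-purified E. coli-expressed BCAT transaminated 750 μM L-leucine with 500 μM α-ketoglutarate and 10 μM PLP. Glutamate was coupled via glutamate dehydrogenase (1 mM NAD+, 4 mM ADP) to NADH formation at 340 nm. Compounds were added in DMSO up to 5% v/v.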

Series [1] addresses T2, human Branched Chain Amino Acid Aminotransferase cytosolic form (hBCATc) (Homo sapiens, UniProt P54687).
T2 construct: made in house; host or cells: E. coli BL21(DE3)
T2 sequence (P54687 1-386): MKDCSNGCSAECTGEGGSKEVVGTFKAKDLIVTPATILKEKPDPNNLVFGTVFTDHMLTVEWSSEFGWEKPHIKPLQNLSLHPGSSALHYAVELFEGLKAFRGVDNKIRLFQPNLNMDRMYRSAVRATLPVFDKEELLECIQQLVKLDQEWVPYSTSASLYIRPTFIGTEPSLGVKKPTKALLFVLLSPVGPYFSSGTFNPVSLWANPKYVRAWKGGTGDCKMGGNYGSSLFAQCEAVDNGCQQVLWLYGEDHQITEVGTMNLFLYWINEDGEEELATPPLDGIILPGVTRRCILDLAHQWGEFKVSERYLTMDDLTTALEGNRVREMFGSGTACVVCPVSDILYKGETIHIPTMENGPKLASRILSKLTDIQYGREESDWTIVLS
As to the kind of experiment: In vitro coupled enzyme assay (glutamate dehydrogenase, NADH formation), human BCATc. In kind it is biochemical. The following applies: recombinant human BCATc, 37° C., 25 mM phosphate buffer pH 7.8; several values in a cell = repeat determinations; read-out: RhBCATc. In short, it runs like this:
as §1

SMILES strings stand for the structures. Where “and” joins values, the source holds several entries; their conditions need not be identical. Equal values may be shown once. Where only a bound is given, the exact number is not on record here.

`Cc1ccccc1S(=O)(=O)NNC(=O)c1cc2cc(Cl)cc(Cl)c2o1` [Example 71, 2-Benzofurancarboxylic acid, 5,7-dichloro 2-[(2-methylphenyl)sulfonyl]hydrazide]: the melting point (usually the temperature of the solid-liquid transition) lay in the range of 212 to 214 °C. Besides, on rat BCAT cytosolic form, the IC50 is 0.88 µM. Also, the IC50 in series [1] was determined as 6.57 µM.

`Cc1cccc(S(=O)(=O)NNC(=O)c2cc3cc(Cl)cc(Cl)c3o2)c1` [Example 72, 2-Benzofurancarboxylic acid, 5,7-dichloro 2-[(3-methylphenyl)sulfonyl]-hydrazide] showed a melting point of 230.4 to 231.1 °C. Besides, the IC50 on rat BCAT cytosolic form is 1.86 µM. Moreover, the IC50 in series [1] is > 10 µM and 5.35 µM.

In the case of `O=C(NNS(=O)(=O)c1cccc(Br)c1)c1cc2cc(Cl)cc(Cl)c2o1` [Example 74, 2-Benzofurancarboxylic acid, 5,7-dichloro 2-[(3-bromophenyl)sulfonyl]-hydrazide], the melting point lay within 248.5 to 248.8 °C. Besides, the IC50 at rat BCAT cytosolic form turned out to be 3.71 µM. The IC50 in series [1] is 64.5 µM.

In turn, `O=C(NNS(=O)(=O)c1cccc(Cl)c1)c1cc2cc(Cl)cc(Cl)c2o1` [Example 75, 2-Benzofurancarboxylic acid, 5,7-dichloro 2-[(3-chlorophenyl)sulfonyl]-hydrazide] gave a melting point of 245.6 to 245.7 °C. The IC50 on rat BCAT cytosolic form stood at 0.88 µM. The IC50 in series [1] is > 10 µM and 5.4 µM.

With `O=C(NNS(=O)(=O)c1ccccc1OC(F)(F)F)c1cc2cc(Cl)cc(Cl)c2o1` [Example 76, 2-Benzofurancarboxylic acid, 5,7-dichloro 2-[[2-(trifluoromethoxy)phenyl]-sulfonyl]hydrazide], the melting point lay within 234.5 to 236.1 °C. On rat BCAT cytosolic form, the IC50 came to 1.51 µM. The IC50 in series [1] is 11.2 µM.

Consider `O=C(NNS(=O)(=O)c1ccccc1C(F)(F)F)c1cnc2ccccc2c1` [Example 135, 3-Quinolinecarboxylic acid, 2-[(2-trifluoromethylphenyl)sulfonyl]hydrazide], for which the melting point fell in the range of 203.6 to 204.4 °C. Besides, the IC50 at rat BCAT cytosolic form came out at 2.8 µM. Besides, in series [1], the IC50 is 13 µM.

As for `O=C(NNS(=O)(=O)c1ccccc1OC(F)(F)F)c1cnc2ccccc2c1` [Example 137, 3-Quinolinecarboxylic acid, 2-[(2-trifluoromethoxyphenyl)sulfonyl]hydrazide], the melting point was 175.1 to 175.9 °C. Moreover, at rat BCAT cytosolic form, the IC50 worked out at 14 µM. In series [1], the IC50 was determined as 41 µM.

Regarding `O=C(NNS(=O)(=O)c1ccccc1)c1ccc2c(c1)CCO2` [Example 149, 2,3-Dihydro-benzofuran-5-carboxylic acid 2-(phenylsulfonyl)hydrazide], the melting point is 181 to 183 °C. At rat BCAT cytosolic form, the IC50 is 3.3 µM. Also, the IC50 in series [1] worked out at 17.9 µM.

The values above are taken from patent publication US20050004167A1, “Branched chain amino acid-dependent aminotransferase inhibitors and their use in the treatment of neurodegenerative diseases” (WARNER-LAMBERT COMPANY LLC, priority 2001, published 2005).
